Patent US12281080B2, “Quinoline-based compounds and methods of inhibiting CDK8/19” (University of South Carolina, priority 2018, dated 2025)

Columns and labels:
HUNK = HUNK (Homo sapiens (Human), UniProt P57058); assay: KINOMEscan scanMAX; type: binding; settings: 2000 nM; read-out: Percent Control
SYK = SYK (Homo sapiens (Human), UniProt P43405); assay: KINOMEscan scanMAX; type: binding; settings: 2000 nM; read-out: Percent Control
[1] = molecular target: RSK2(Kin.Dom.2-C-terminal) (RPS6KA3) (Homo sapiens (Human), UniProt P51812); assay: KINOMEscan scanMAX; type: binding; settings: 2000 nM; read-out: Percent Control
MAP4K3 = MAP4K3 (Homo sapiens (Human), UniProt Q8IVH8); assay: KINOMEscan scanMAX; type: binding; settings: 2000 nM; read-out: Percent Control
FLT3(K663Q) = FLT3(K663Q) (Homo sapiens (Human), UniProt P36888, K663Q); assay: KINOMEscan scanMAX; type: binding; settings: 2000 nM; read-out: Percent Control
HIPK1 = HIPK1 (Homo sapiens (Human), UniProt Q86Z02); assay: KINOMEscan scanMAX; type: binding; settings: 2000 nM; read-out: Percent Control
FRK = FRK (Homo sapiens (Human), UniProt P42685); assay: KINOMEscan scanMAX; type: binding; settings: 2000 nM; read-out: Percent Control
FRK, sequence (P42685 whole entry): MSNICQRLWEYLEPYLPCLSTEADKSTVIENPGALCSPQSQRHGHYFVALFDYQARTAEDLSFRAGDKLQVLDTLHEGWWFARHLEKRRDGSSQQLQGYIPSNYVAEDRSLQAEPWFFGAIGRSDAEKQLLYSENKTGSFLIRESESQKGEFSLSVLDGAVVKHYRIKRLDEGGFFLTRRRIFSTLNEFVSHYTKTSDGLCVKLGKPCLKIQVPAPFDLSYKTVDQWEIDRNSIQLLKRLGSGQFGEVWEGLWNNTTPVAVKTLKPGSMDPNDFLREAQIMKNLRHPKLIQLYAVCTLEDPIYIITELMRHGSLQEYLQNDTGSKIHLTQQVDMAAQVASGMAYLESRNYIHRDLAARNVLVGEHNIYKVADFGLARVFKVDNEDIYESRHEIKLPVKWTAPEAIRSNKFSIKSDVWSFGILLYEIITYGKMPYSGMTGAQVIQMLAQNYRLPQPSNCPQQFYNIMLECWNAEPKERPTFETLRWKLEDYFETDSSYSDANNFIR

VPS34 (PIK3C3) = VPS34 (PIK3C3) (Homo sapiens (Human), UniProt Q8NEB9); assay: KINOMEscan scanMAX; type: binding; settings: 2000 nM; read-out: Percent Control
EGFR(L858R) = EGFR(L858R) (Homo sapiens (Human), UniProt P00533, L858R); assay: KINOMEscan scanMAX; type: binding; settings: 2000 nM; read-out: Percent Control
EGFR(L858R), sequence (P00533 25-1210 L858R): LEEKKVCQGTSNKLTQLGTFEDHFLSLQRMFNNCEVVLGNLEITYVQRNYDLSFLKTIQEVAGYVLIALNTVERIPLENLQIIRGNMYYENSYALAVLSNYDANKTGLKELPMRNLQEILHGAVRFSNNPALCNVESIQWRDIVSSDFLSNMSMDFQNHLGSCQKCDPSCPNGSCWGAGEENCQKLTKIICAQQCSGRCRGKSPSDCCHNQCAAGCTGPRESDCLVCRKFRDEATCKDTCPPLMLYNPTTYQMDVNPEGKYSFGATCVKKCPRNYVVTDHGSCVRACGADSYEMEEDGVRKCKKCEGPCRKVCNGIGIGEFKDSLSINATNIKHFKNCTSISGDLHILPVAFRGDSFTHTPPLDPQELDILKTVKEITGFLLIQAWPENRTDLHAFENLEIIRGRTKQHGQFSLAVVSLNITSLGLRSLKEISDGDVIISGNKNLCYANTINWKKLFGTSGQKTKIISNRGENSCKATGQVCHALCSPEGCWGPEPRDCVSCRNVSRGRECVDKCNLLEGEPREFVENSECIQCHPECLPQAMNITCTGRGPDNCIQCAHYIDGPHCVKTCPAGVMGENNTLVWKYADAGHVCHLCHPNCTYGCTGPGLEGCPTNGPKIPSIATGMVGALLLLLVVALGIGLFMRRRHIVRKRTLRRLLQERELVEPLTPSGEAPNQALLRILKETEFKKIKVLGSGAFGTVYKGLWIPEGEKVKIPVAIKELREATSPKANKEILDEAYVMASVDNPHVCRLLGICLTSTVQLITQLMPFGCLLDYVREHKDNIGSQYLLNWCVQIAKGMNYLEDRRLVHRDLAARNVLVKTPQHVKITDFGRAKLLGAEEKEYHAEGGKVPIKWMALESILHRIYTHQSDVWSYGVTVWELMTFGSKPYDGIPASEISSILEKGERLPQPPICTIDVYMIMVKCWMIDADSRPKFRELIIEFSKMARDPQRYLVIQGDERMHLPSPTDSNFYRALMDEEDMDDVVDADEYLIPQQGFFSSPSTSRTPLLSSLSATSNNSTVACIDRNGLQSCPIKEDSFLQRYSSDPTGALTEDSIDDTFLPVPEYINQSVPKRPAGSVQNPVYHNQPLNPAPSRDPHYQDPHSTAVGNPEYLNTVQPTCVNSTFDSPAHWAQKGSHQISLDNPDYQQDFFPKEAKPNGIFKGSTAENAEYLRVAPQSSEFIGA

[2] = molecular target: ABL1(F317I)-phosphorylated (Homo sapiens (Human), UniProt P00519, F317I); assay: KINOMEscan scanMAX; type: binding; settings: 2000 nM; read-out: Percent Control
ABL1(F317I)-phosphorylated, sequence (P00519 whole entry F317I): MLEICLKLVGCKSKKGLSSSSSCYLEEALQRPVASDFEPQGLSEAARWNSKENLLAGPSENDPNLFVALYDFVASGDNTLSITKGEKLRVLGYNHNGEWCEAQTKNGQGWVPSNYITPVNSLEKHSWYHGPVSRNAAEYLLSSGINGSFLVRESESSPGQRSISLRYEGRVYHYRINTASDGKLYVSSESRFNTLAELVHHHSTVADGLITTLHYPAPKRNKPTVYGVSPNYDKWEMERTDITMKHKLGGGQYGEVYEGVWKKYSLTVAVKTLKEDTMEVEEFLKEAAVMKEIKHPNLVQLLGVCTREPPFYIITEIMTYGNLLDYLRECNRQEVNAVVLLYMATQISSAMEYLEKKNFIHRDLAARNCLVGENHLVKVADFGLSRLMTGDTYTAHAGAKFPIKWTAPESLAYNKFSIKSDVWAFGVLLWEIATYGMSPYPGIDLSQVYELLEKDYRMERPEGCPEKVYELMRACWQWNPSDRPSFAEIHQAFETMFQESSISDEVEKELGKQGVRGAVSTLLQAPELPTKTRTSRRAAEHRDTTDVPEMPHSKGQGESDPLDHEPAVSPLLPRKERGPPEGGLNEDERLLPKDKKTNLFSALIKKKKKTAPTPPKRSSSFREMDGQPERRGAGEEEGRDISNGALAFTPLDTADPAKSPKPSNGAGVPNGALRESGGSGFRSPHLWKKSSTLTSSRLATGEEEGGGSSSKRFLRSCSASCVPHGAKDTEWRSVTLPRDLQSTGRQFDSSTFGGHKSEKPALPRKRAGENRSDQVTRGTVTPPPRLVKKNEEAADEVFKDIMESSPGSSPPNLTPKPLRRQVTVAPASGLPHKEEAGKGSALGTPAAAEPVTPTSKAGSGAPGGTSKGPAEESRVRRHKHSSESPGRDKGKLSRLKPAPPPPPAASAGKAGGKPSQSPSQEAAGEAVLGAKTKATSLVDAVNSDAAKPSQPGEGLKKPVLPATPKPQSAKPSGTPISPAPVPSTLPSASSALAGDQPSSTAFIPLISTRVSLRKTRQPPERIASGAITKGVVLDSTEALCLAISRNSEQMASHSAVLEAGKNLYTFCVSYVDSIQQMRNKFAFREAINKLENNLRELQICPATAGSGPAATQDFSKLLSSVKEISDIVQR

[3] = Mouse pharmacokinetics, intraperitoneal, serum; type: in vivo, mice
Method: […] Blood samples were collected at different time points (5 mice per time point) and Senexin C concentration in the serum was measured by LC/MS/MS.

TLK2 = TLK2 (Homo sapiens (Human), UniProt Q86UE8); assay: KINOMEscan scanMAX; type: binding; settings: 2000 nM; read-out: Percent Control
TLK2, sequence (Q86UE8 whole entry): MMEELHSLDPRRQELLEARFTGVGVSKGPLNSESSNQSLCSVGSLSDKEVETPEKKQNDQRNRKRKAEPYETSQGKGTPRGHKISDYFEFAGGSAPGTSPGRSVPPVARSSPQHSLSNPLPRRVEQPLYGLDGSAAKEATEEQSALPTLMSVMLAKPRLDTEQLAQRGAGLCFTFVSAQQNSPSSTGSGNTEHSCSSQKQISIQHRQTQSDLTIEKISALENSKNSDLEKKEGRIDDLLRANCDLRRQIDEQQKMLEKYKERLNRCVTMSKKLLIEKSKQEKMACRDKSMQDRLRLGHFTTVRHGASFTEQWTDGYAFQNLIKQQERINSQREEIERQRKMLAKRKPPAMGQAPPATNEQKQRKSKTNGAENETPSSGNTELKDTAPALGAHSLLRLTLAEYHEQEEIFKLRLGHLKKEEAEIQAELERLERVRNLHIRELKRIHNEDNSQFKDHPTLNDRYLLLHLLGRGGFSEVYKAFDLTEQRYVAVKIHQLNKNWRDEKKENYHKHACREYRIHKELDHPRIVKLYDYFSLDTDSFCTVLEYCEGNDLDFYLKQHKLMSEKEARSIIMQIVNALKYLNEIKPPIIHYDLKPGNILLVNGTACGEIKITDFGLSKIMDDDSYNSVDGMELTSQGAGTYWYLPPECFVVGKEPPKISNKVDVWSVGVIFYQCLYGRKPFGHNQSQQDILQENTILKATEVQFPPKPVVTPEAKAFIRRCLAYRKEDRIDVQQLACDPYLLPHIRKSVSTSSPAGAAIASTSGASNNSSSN

BRSK2 = BRSK2 (Homo sapiens (Human), UniProt Q8IWQ3); assay: KINOMEscan scanMAX; type: binding; settings: 2000 nM; read-out: Percent Control
LATS2 = LATS2 (Homo sapiens (Human), UniProt Q9NRM7); assay: KINOMEscan scanMAX; type: binding; settings: 2000 nM; read-out: Percent Control
ABL1-nonphosphorylated = ABL1-nonphosphorylated (Homo sapiens (Human), UniProt P00519); assay: KINOMEscan scanMAX; type: binding; settings: 2000 nM; read-out: Percent Control
ABL1-nonphosphorylated, sequence (P00519 whole entry): as the sequence (P00519 whole entry F317I) above, with I317F counted along it

WEE1 = WEE1 (Homo sapiens (Human), UniProt P30291); assay: KINOMEscan scanMAX; type: binding; settings: 2000 nM; read-out: Percent Control
DRAK1 (STK17A) = DRAK1 (STK17A) (Homo sapiens (Human), UniProt Q9UEE5); assay: KINOMEscan scanMAX; type: binding; settings: 2000 nM; read-out: Percent Control
BRK (PTK6) = BRK (PTK6) (Homo sapiens (Human), UniProt Q13882); assay: KINOMEscan scanMAX; type: binding; settings: 2000 nM; read-out: Percent Control
[4] = Serum and tumor PK at study endpoint, C4-2 xenografts; type: in vivo, mice; settings: 6-7 hours post last dose, 40 mg/kg orally daily for 4 days
Method: CDK8/19 inhibition decreases the expression of certain androgen-receptor (AR) inducible genes including PSA, the most common marker of prostate cancer, and the growth of castration-refractory prostate cancers (CRPC). The in vivo effects of Senexin C on PSA expression by C4-2 cells were analyzed after treatment of male NcrNU mice bearing C4-2 xenografts (grouped based on tumor sizes) for 4 days at 40 mg/kg administered orally daily.

MAP4K2 = MAP4K2 (Homo sapiens (Human), UniProt Q12851); assay: DiscoverX Kd assay
MLCK (MYLK3) = MLCK (MYLK3) (Homo sapiens (Human), UniProt Q32MK0); assay: KINOMEscan scanMAX; type: binding; settings: 2000 nM; read-out: Percent Control
TGFBR1 = TGFBR1 (Homo sapiens (Human), UniProt P36897); assay: KINOMEscan scanMAX; type: binding; settings: 2000 nM; read-out: Percent Control
TGFBR1, sequence (P36897 34-503): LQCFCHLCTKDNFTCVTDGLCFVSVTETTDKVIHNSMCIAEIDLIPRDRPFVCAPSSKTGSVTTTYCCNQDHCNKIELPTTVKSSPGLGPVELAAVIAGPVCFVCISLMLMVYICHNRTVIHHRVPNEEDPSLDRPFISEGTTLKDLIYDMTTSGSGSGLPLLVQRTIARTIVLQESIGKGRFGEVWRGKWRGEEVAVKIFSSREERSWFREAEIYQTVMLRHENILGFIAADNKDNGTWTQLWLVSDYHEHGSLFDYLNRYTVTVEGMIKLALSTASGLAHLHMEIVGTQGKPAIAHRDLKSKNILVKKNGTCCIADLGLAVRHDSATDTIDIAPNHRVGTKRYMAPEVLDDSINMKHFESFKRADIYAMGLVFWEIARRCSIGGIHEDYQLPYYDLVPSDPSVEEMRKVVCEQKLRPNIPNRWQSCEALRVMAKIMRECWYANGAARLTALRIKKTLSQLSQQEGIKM

LKB1 (STK11) = LKB1 (STK11) (Homo sapiens (Human), UniProt Q15831); assay: KINOMEscan scanMAX; type: binding; settings: 2000 nM; read-out: Percent Control
PIM3 = PIM3 (Homo sapiens (Human), UniProt Q86V86); assay: KINOMEscan scanMAX; type: binding; settings: 2000 nM; read-out: Percent Control
PAK7 = PAK7 (Homo sapiens (Human), UniProt Q9P286); assay: KINOMEscan scanMAX; type: binding; settings: 2000 nM; read-out: Percent Control
CDK19 = CDK19 (Homo sapiens (Human), UniProt Q9BWU1); assay: DiscoverX Kd assay
PYK2 (PTK2B) = PYK2 (PTK2B) (Homo sapiens (Human), UniProt Q14289); assay: KINOMEscan scanMAX; type: binding; settings: 2000 nM; read-out: Percent Control
NDR1 (STK38) = NDR1 (STK38) (Homo sapiens (Human), UniProt Q15208); assay: KINOMEscan scanMAX; type: binding; settings: 2000 nM; read-out: Percent Control
AXL = AXL (Homo sapiens (Human), UniProt P30530); assay: KINOMEscan scanMAX; type: binding; settings: 2000 nM; read-out: Percent Control
VRK2 = VRK2 (Homo sapiens (Human), UniProt Q86Y07); assay: KINOMEscan scanMAX; type: binding; settings: 2000 nM; read-out: Percent Control
NEK11 = NEK11 (Homo sapiens (Human), UniProt Q8NG66); assay: KINOMEscan scanMAX; type: binding; settings: 2000 nM; read-out: Percent Control
PDGFRB = PDGFRB (Homo sapiens (Human), UniProt P09619); assay: KINOMEscan scanMAX; type: binding; settings: 2000 nM; read-out: Percent Control
AMPK-alpha1 (PRKAA1) = AMPK-alpha1 (PRKAA1) (Homo sapiens (Human), UniProt Q13131); assay: KINOMEscan scanMAX; type: binding; settings: 2000 nM; read-out: Percent Control
EPHA1 = EPHA1 (Homo sapiens (Human), UniProt P21709); assay: KINOMEscan scanMAX; type: binding; settings: 2000 nM; read-out: Percent Control
EPHA1, sequence (P21709 26-976): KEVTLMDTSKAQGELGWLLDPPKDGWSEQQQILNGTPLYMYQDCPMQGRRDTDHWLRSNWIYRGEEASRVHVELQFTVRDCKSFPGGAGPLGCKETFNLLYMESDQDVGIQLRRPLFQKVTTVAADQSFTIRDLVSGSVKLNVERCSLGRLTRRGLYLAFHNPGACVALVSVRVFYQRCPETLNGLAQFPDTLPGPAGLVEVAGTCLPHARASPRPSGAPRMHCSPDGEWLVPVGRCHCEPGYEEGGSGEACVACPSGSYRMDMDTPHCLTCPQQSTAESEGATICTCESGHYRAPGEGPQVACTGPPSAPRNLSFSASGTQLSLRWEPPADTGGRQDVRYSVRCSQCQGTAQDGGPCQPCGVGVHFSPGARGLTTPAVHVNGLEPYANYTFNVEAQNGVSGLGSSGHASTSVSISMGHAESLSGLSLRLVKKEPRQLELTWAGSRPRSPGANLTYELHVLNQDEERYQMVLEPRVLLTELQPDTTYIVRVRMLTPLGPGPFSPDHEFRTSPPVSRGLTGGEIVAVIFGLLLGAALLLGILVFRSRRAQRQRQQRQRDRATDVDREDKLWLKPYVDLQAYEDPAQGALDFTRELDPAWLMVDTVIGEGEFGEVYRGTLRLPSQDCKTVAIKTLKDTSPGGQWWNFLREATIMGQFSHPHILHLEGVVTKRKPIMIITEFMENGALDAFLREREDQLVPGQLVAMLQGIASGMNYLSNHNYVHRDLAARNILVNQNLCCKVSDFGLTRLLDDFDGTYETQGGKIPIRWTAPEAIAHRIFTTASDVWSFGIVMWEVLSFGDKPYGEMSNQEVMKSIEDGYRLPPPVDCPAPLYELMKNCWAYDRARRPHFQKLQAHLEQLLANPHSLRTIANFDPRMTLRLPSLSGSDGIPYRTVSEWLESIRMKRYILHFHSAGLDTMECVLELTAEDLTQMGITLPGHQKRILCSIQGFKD

MLK2 (MAP3K10) = MLK2 (MAP3K10) (Homo sapiens (Human), UniProt Q02779); assay: KINOMEscan scanMAX; type: binding; settings: 2000 nM; read-out: Percent Control

SMILES: CN1CCN(C(=O)c2ccc3cc(CCNc4ccnc5ccc(C#N)cc45)ccc3c2)CC1 [compound 6148, 4-((2-(6-(4-methylpiperazine-1-carbonyl)naphthalen-2-yl)ethyl)amino)quinoline-6-carbonitrile]
- remaining binding at 2 µM (HUNK): 74%
- remaining binding at 2 µM (SYK): 97%
- remaining binding at 2 µM [1]: 65%
- remaining binding at 2 µM (MAP4K3): 100%
- remaining binding at 2 µM (FLT3(K663Q)): 87%
- remaining binding at 2 µM (HIPK1): 73%
- remaining binding at 2 µM (FRK): 92%
- remaining binding at 2 µM (VPS34 (PIK3C3)): 68%
- remaining binding at 2 µM (EGFR(L858R)): 93%
- remaining binding at 2 µM [2]: 89%
- elimination rate k ([3]; i.p. 19 mg/kg, female FVB mice): 0.94 h⁻¹
- t1/2 ([3]; i.p. 19 mg/kg, female FVB mice): 44.4 min
- Half-life higher than Senexin B ([3]; i.p., mice): > 4 fold
- half-life ([3]; mouse, serum, ip, i.p. 19 mg/kg, female FVB mice): 44.4 min
- AUC ([3]; mouse, serum, ip, i.p. 19 mg/kg, female FVB mice, read-out: AUC): 1570 ng·h/mL
- Cmax ([3]; mouse, serum, ip, i.p. 19 mg/kg, female FVB mice, read-out: Cmax): 1160 ng/mL
- bioavailability ([3]; mouse, serum, ip, i.p. 19 mg/kg, female FVB mice, read-out: bioavailability (F %)): 73%
- remaining binding at 2 µM (TLK2): 88%
- remaining binding at 2 µM (BRSK2): 96%
- remaining binding at 2 µM (LATS2): 88%
- remaining binding at 2 µM (ABL1-nonphosphorylated): 71%
- remaining binding at 2 µM (WEE1): 88%
- remaining binding at 2 µM (DRAK1 (STK17A)): 100%
- remaining binding at 2 µM (BRK (PTK6)): 97%
- Drug concentration in tumor tissues vs serum [4]: higher Senexin C drug concentration in tumor tissues
- Kd (MAP4K2): 940 nM
- remaining binding at 2 µM (MLCK (MYLK3)): 100%
- remaining binding at 2 µM (TGFBR1): 100%
- remaining binding at 2 µM (LKB1 (STK11)): 87%
- remaining binding at 2 µM (PIM3): 96%
- remaining binding at 2 µM (PAK7): 100%
- Kd (CDK19): 44 nM
- remaining binding at 2 µM (PYK2 (PTK2B)): 92%
- remaining binding at 2 µM (NDR1 (STK38)): 79%
- remaining binding at 2 µM (AXL): 95%
- remaining binding at 2 µM (VRK2): 58%
- remaining binding at 2 µM (NEK11): 60%
- remaining binding at 2 µM (PDGFRB): 94%
- remaining binding at 2 µM (AMPK-alpha1 (PRKAA1)): 94%
- remaining binding at 2 µM (EPHA1): 93%
- remaining binding at 2 µM (MLK2 (MAP3K10)): 79%
